This note sets out measurements from patent publication US12150995B2, “IRAK degraders and uses thereof” (Kymera Therapeutics, Inc., priority 2020, dated 2024).

A value given as a limit tells only on which side of the number the result lay.

The target in the test is T1, IRAK4 (Homo sapiens, UniProt Q9NWZ3).
T1 construct: endogenous in cells; host or cells: OCI-LY10
T1 sequence (Q9NWZ3 1-460): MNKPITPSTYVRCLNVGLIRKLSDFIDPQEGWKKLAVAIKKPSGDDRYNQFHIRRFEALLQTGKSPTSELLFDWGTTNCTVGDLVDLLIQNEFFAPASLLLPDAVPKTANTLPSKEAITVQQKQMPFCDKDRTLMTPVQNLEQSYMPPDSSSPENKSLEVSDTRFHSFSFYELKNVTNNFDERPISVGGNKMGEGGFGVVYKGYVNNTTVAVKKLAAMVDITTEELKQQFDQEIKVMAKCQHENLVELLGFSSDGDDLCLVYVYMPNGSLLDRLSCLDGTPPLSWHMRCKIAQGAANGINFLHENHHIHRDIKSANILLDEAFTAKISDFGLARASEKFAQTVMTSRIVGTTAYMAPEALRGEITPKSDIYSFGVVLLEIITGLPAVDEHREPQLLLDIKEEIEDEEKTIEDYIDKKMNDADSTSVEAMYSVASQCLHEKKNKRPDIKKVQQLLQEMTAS
As to the kind of experiment: IRAK4 MSD Degradation in OCI-LY10. The note with it: OCI-LY10 cells, Meso Scale Discovery, incubated 4 to 24 hours. The class given is cell-based. The procedure, abridged: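 IRAK4 degradation was quantified by Meso Scale electrochemiluminescence (anti-IRAK4 capture and detection antibodies) in lysates of treated OCI-LY10 cells. Compounds were dosed at 8 concentrations (1:3 dilutions, top 1 to 10 μM) for 4 to 24 h; DC50 derived by three-parameter logistic fitting.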

With `CC(C)c1cc2nn([C@H]3CC[C@H](CN4CCN(c5cccc6c5n(C)c(=O)n6C5CCC(=O)NC5=O)CC4)CC3)cc2cc1NC(=O)c1cccc(C(F)(F)F)n1` (stereo partly shown) [I-397], the 50% degradation concentration (DC50) (in general, the concentration giving 50% degradation) is below 10 nM. Compound `COc1cc2nn([C@H]3CC[C@@H](CN4CCN(CC#Cc5cccc6c5n(C)c(=O)n6C5CCC(=O)NC5=O)CC4)CC3)cc2cc1NC(=O)c1cccc(C(F)(F)F)n1` (stereo partly shown) [I-327] came in with a DC50 below 10 nM. `Cn1c(=O)n(C2CCC(=O)NC2=O)c2cccc(C3CCN(C[C@H]4CC[C@H](n5cc6cc(NC(=O)c7cccc(C(F)(F)F)n7)ncc6n5)CC4)CC3)c21` (stereo partly shown) [I-62]: the 50% degradation concentration (DC50) was below 10 nM.

The compound `Cc1cccc(C(=O)Nc2cc3sc([C@H]4CC[C@H](CN(C)CCCCNc5cccc6c5C(=O)N(C5CCC(=O)NC5=O)C6=O)CC4)nc3cc2C(C)(C)O)n1` (stereo partly shown) [I-444] came in with a DC50 of 10 to 50 nM. In the case of `CN(CCCNc1cccc2c1C(=O)N(C1CCC(=O)NC1=O)C2=O)C(=O)[C@H]1CC[C@H](c2nc3cc(C(C)(C)O)c(NC(=O)c4cccc(C(F)(F)F)n4)cc3s2)CC1` (stereo partly shown) [I-489] it was above 200 nM. Regarding `COc1cc2nc([C@H]3CC[C@H](CN(C)CCCCNc4cccc5c4C(=O)N(C4CCC(=O)NC4=O)C5=O)CC3)sc2cc1NC(=O)c1cccc(C#N)n1` (stereo partly shown) [I-433], the half-maximal degradation concentration (DC50) is 10 to 50 nM. Compound `Cc1cc2nn([C@H]3CC[C@H](CN4CC5CC(C4)N5c4cccc5c4n(C)c(=O)n5C4CCC(=O)NC4=O)CC3)cc2cc1NC(=O)c1cccc(C(F)(F)F)n1` (stereo partly shown) [I-414] yielded a half-maximal degradation concentration (DC50) of 10 to 50 nM.

`COc1cc2c(cc1NC(=O)c1cccc(C(F)(F)F)n1)cc([C@H]1CC[C@H](CN(C)C3CCN(c4cccc5c4n(C)c(=O)n5C4CCC(=O)NC4=O)CC3)CC1)n2C` (stereo partly shown) [I-41]: the DC50 is above 200 nM. Compound `COc1cncc(C(=O)Nc2cc3sc([C@H]4CC[C@H](CN(C)CCCNc5cccc6c5C(=O)N(C5CCC(=O)NC5=O)C6=O)CC4)nc3cc2OC)c1` (stereo partly shown) [I-450] showed a DC50 above 200 nM. In the case of `O=C1CCN(c2cncc3c(N4CCN(C[C@H]5CC[C@H](n6cc7cc(NC(=O)c8cccc(C(F)(F)F)n8)c(Cl)cc7n6)CC5)CC4)cccc23)C(=O)N1` [I-358] it was 10 to 50 nM. In turn, `COc1cc2nn([C@H]3CC[C@H](CN4CCC(c5cccc6c5n(C)c(=O)n6C5CCC(=O)NC5=O)CC4)CC3)cc2cc1NC(=O)c1cncc(Cl)c1` (stereo partly shown) [I-93] registered a DC50 below 10 nM. Next, `Cc1c(C2CCN(C[C@H]3CC[C@H](n4cc5cc(NC(=O)c6cccc(C(F)(F)F)n6)ncc5n4)CC3)CC2)ccc2c1n(C)c(=O)n2C1CCC(=O)NC1=O` (stereo partly shown) [I-210]: above 200 nM; `CC(C)Nc1cc(-n2ccc3cc(C#N)cnc32)ncc1C(=O)N[C@H]1CC[C@H](CN2CCN(c3cccc4c3n(C)c(=O)n4C3CCC(=O)NC3=O)CC2)CC1` (stereo partly shown) [I-361]: below 10 nM; `COc1cc2nc([C@H]3CC[C@H](C(=O)N4CCN(CCCNc5cccc6c5C(=O)N(C5CCC(=O)NC5=O)C6=O)CC4)CC3)sc2cc1NC(=O)c1cccc(C(F)(F)F)n1` (stereo partly shown) [I-466]: 50 to 100 nM. On to `COc1cc2nn([C@H]3CC[C@H](CN4CCCN(c5ccc6c(N7CCC(=O)NC7=O)cncc6c5)CC4)CC3)cc2cc1NC(=O)c1cccc(C(F)(F)F)n1` [I-356], for which the 50% degradation concentration (DC50) was below 10 nM.

As for `COc1cc2nn([C@H]3CC[C@H](CN4CCC5(CC4)CC(CNc4cccc6c4C(=O)N(C4CCC(=O)NC4=O)C6=O)C5)CC3)cc2cc1NC(=O)c1cccc(C(C)(F)F)n1` (stereo partly shown) [I-4], the DC50 fell in the range of 50 to 100 nM. As to `COc1ccc2c(c1N1CCN(C[C@H]3CC[C@H](n4cc(-c5cnc(-n6ccc7cc(C#N)cnc76)cc5NC(C)C)nn4)CC3)CC1)n(C)c(=O)n2C1CCC(=O)NC1=O` (stereo partly shown) [I-295], the half-maximal degradation concentration (DC50) was in the range of 10 to 50 nM. The compound `COc1cc2nc([C@H]3CC[C@H](CN(C)CCCCNc4cccc5c4C(=O)N(C4CCC(=O)NC4=O)C5=O)CC3)sc2cc1NC(=O)c1cccc(C)n1` (stereo partly shown) [I-437] registered a DC50 of 10 to 50 nM. In turn, `C=C/C(NCCCN1CCN(C[C@H]2CC[C@H](c3nc4cc(C(C)(C)O)c(NC(=O)c5cccc(C)n5)cc4s3)CC2)C[C@@H]1C)=C1/C(=O)N(C2CCC(=O)NC2=O)C(=O)/C1=C/C` (stereo partly shown) [I-443] had a DC50 of 10 to 50 nM.
